The values that follow come from patent US10307413B2, “Tetrahydro- and dihydro-isoquinoline PRMT5 inhibitors and uses thereof” (Epizyme, Inc., priority 2013, dated 2019).

One test deals with Z-138 cell line. Description: Z-138 Proliferation Assay (Cell Titer Glo, 5 days). Format: cell-based. The conditions noted are these: Homo sapiens, 120 h; Z-138 cells, 5 days; read-out: Proliferation EC50. An outline of the steps:
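Viability via CellTiter-Glo luminescence (ATP) after 5-day incubation at 37 °C, 5% CO2. Compounds tested in triplicate, nine 3-fold steps, highest final concentration 20 μM in 0.2% DMSO; 50% inhibitory concentration by 4-parameter fit of normalized curves.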

The subject of test [1] is symmetric di-methyl arginine in Z-138 cells. The test is described as follows: Z-138 Methylation Assay (In Cell Western for symmetric di-methyl arginine and DNA content). The conditions noted are these: Homo sapiens, read-out: ICW EC50. Type of test: cell-based. A digest of the protocol:
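In-cell western: symmetric di-methyl arginine signal ratioed to DRAQ5 DNA content after 96 h compound exposure of Z-138 cells seeded at 50,000 cells/mL.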

`CS(=O)(=O)N1CCC(Nc2ccc(C(=O)NCC(O)CN3CCc4ccccc4C3)cc2)CC1` (centres unmarked) [Compound 141]: the EC50 in the test with Z-138 cell line is 1 to 10 µM; in test [1] it was < 0.1 µM.
In the same order, the values of `O=C(NC[C@H](O)CN1CCc2ccccc2C1)Nc1ccccc1` [Compound 5] are > 20 µM and 0.101 to 1 µM.
In the same order, the values of `O=C(NCC(O)CN1CCc2ccccc2C1)c1ccn[nH]1` (centres unmarked) [Compound 148] are > 20 µM and 1 to 10 µM.
In the same order, the values of `O=C(NC[C@H](O)CN1CCc2ccccc2C1)c1cc(OC2CCOCC2)ncn1` [Compound 256] are 1 to 10 µM and < 0.1 µM.
For `CC(=O)N1CCC(Nc2cncc(C(=O)NC[C@H](O)CN3CCc4ccccc4C3)c2)CC1` [Compound 302], the EC50 (in the test on Z-138 cell line; in test [1]) was < 0.1 µM throughout.
For the compound `O=C(NCC(O)CN1CCc2ccccc2C1)c1cccc(NC2CCOCC2O)c1` (centres unmarked) [Compound 98], the values for the EC50 (with Z-138 cell line; in test [1]) were 1 to 10 µM and 0.101 to 1 µM, respectively.
On to `O=C(NCC(O)CN1CCc2ccccc2C1)c1cccc(CN2CCNCC2)c1` (centres unmarked) [Compound 29], for which the results for the EC50 (with Z-138 cell line; in test [1]) were 1 to 10 µM and 0.101 to 1 µM, respectively.
For the compound `NC(=O)CN1CCN(Cc2cccc(C(=O)NCC(O)CN3CCc4ccccc4C3)c2)CC1` (centres unmarked) [Compound 172], the EC50 is 1 to 10 µM in the test with Z-138 cell line and < 0.1 µM in test [1].
In the same order, the values of `CN(C)CCOc1cccc(C(=O)NCC(O)CN2CCc3ccccc3C2)c1` (centres unmarked) [Compound 28, N-(3-(3,4-dihydroisoquinolin-2(1H)-yl)-2-hydroxypropyl)-3-(2-(dimethylamino)ethoxy)benzamide] are 10 to 50 µM and 0.101 to 1 µM.
In the same order, the values of `CC(C)N1CCC(Oc2cccc(C(=O)NCC(O)CN3CCc4ccccc4C3)c2)C1` (centres unmarked) [Compound 135] are 10 to 50 µM and < 0.1 µM.
In the same order, the values of `O=C(NC[C@H](O)CN1CCc2ccccc2C1)c1c(O)ccc2ccccc12` [Compound 327] are > 20 µM and 0.101 to 1 µM.
As for `COc1cc(C(=O)NC[C@H](O)CN2CCc3ccccc3C2)cc(NC2CCC2)n1` [Compound 332], the EC50 (in the test with Z-138 cell line; in test [1]) was < 0.1 µM each time.
For `CC(C)(C)C(=O)N1CCC(Oc2ccc(C(=O)NC[C@H](O)CN3CCc4ccccc4C3)cc2)CC1` [Compound 322], the EC50 in the test on Z-138 cell line was 0.101 to 1 µM; in test [1] it was < 0.1 µM.
For `CNC(=O)CNCc1cccc(C(=O)NCC(O)CN2CCc3ccccc3C2)c1` (centres unmarked) [Compound 117], in that order: > 20 µM and 0.101 to 1 µM.
In the same order, the values of `O=C(NC[C@H](O)CN1CCc2ccccc2C1)c1cccc2c1OCCO2` [Compound 249] are 10 to 50 µM and 0.101 to 1 µM.
For `Cn1nccc1-c1cccc(C(=O)NCC(O)CN2CCc3ccccc3C2)c1` (centres unmarked) [Compound 2, N-(3-(3,4-dihydroisoquinolin-2(1H)-yl)-2-hydroxypropyl)-3-(1-methyl-1H-pyrazol-5-yl)benzamide], in that order: 1 to 10 µM and < 0.1 µM.
In the case of `CC(C)(C)c1cc(Nc2cc(C(=O)NC[C@H](O)CN3CCc4ccccc4C3)ccn2)n[nH]1` [Compound 326], the EC50 in the test on Z-138 cell line was 0.101 to 1 µM; in test [1], < 0.1 µM.
With `CC(=O)N1CCC(Nc2cc(C(=O)NC[C@H](O)CN3CCc4ccccc4C3)ncn2)CC1` [Compound 208, (S)-6-((1-acetylpiperidin-4-yl)amino)-N-(3-(3,4-dihydroisoquinolin-2(1H)-yl)-2-hydroxypropyl)pyrimidine-4-carboxamide], the EC50 (in the test on Z-138 cell line; in test [1]) was < 0.1 µM throughout.
For the compound `CNCCNc1cc(C(=O)NC[C@H](O)CN2CCc3ccccc3C2)ccn1` [Compound 314], the EC50 with Z-138 cell line was 10 to 50 µM; in test [1], < 0.1 µM.
For `O=C(NC[C@H](O)CN1CCc2ccccc2C1)c1ccnc(NC2CCOC2)c1` (some centres unmarked) [Compound 306], in that order: < 0.1 µM and < 0.1 µM.
In the same order, the values of `O=C(NC[C@H](O)CN1CCc2ccccc2C1)c1ccc2c(c1)OCO2` [Compound 244] are 1 to 10 µM and 0.101 to 1 µM.
In the same order, the values of `Cc1c(NC2CCOCC2)ncnc1C(=O)NC[C@H](O)CN1CCc2ccccc2C1` [Compound 231] are 1 to 10 µM and < 0.1 µM.
On to `O=C(NC[C@H](O)CN1CCc2ccccc2C1)c1ccc2cc(O)ccc2c1` [Compound 318], for which the values for the EC50 (with Z-138 cell line; in test [1]) were 1 to 10 µM and 0.101 to 1 µM, respectively.
As for `CC(=O)N1CCC(Nc2cc(C(=O)NC[C@H](O)CN3CCc4ccccc4C3)ncn2)C1` (some centres unmarked) [Compound 210], the EC50 in the test with Z-138 cell line is 0.101 to 1 µM; in test [1] it was < 0.1 µM.
In the same order, the values of `NC(=O)CCCN1CCN(Cc2cccc(C(=O)NCC(O)CN3CCc4ccccc4C3)c2)CC1` (centres unmarked) [Compound 159] are 1 to 10 µM and 0.101 to 1 µM.
`O=C(NCC(O)CN1CCc2ccccc2C1)c1cccc(N2CCOCC2)c1` (centres unmarked) [Compound 14, N-(3-(3,4-dihydroisoquinolin-2(1H)-yl)-2-hydroxypropyl)-3-morpholinobenzamide]: the EC50 was 1 to 10 µM in the test on Z-138 cell line and 0.101 to 1 µM in test [1].
As for `CC(=O)N1CC[C@H](Nc2cccc(C(=O)NC[C@H](O)CN3CCc4ccccc4C3)c2)C1` [Compound 266], the EC50 was 0.101 to 1 µM with Z-138 cell line and < 0.1 µM in test [1].
For `O=C(NC[C@H](O)CN1CCc2ccccc2C1)c1cc2ccccc2[nH]1` [Compound 269], in that order: 1 to 10 µM and < 0.1 µM.
Regarding `O=C(NCC(O)CN1CCc2ccccc2C1)c1ccc2c(c1)OCCN2` (centres unmarked) [Compound 88], the EC50 is > 20 µM with Z-138 cell line and 0.101 to 1 µM in test [1].
For `CNC(=O)CCCN1CCN(Cc2cccc(C(=O)NCC(O)CN3CCc4ccccc4C3)c2)CC1` (centres unmarked) [Compound 175], in that order: 1 to 10 µM and 0.101 to 1 µM.
In the same order, the values of `O=C(NC[C@H](O)CN1CCc2ccccc2C1)c1cccc(NC2CCOC2)c1` (some centres unmarked) [Compound 80] are 0.101 to 1 µM and < 0.1 µM.
For `CS(=O)(=O)N1CCC(Nc2cc(C(=O)NC[C@H](O)CN3CCc4ccccc4C3)ncn2)CC1` [Compound 297], in that order: < 0.1 µM and < 0.1 µM.
Regarding `CN1CCN(Cc2ccc(C(=O)NCC(O)CN3CCc4ccccc4C3)cc2)CC1` (centres unmarked) [Compound 163], the figures for the EC50 (in the test with Z-138 cell line; in test [1]) were 1 to 10 µM and < 0.1 µM, respectively.
In the same order, the values of `O=C(NC[C@H](O)CN1CCc2ccccc2C1)c1ccc(OC2CCN(CCO)CC2)cc1` [Compound 321] are 0.101 to 1 µM and < 0.1 µM.
In the same order, the values of `O=C(NCC(O)CN1CCc2ccccc2C1)c1ccc(NC2CCNCC2)cc1` (centres unmarked) [Compound 138] are 10 to 50 µM and 0.101 to 1 µM.
For `O=C(NCC(O)CN1CCc2ccccc2C1)c1ccc2nccnc2c1` (centres unmarked) [Compound 85], the EC50 in the test on Z-138 cell line is 10 to 50 µM; in test [1], 0.101 to 1 µM.
For the compound `O=C(NC[C@@H](O)CN1CCc2ccccc2C1)c1cccc(NC2CCOCC2)c1` [Compound 43], the EC50 lay within 1 to 10 µM in the test with Z-138 cell line and 0.101 to 1 µM in test [1].
For `COc1ccc2cc(C(=O)NCC(O)CN3CCc4ccccc4C3)ccc2n1` (centres unmarked) [Compound 155], in that order: > 20 µM and 1 to 10 µM.
In the same order, the values of `Cn1ccnc1C(=O)NCC(O)CN1CCc2ccccc2C1` (centres unmarked) [Compound 171] are 1 to 10 µM and 0.101 to 1 µM.
In the same order, the values of `Cc1ccc(NC2COC2)cc1C(=O)NCC(O)CN1CCc2ccccc2C1` (centres unmarked) [Compound 97] are 1 to 10 µM and < 0.1 µM.
For `O=C(NC[C@H](O)CN1CCc2ccccc2C1)c1ccc(OC2CCN(Cc3ccccc3)CC2)cc1` [Compound 330], the EC50 (in the test with Z-138 cell line; in test [1]) was < 0.1 µM in each case.
Take `O=C(NC[C@@H](O)CN1CCc2ccccc2C1)c1ccc2ncccc2c1` [Compound 218]: the EC50 is 10 to 50 µM with Z-138 cell line and 0.101 to 1 µM in test [1].
For `CC(C)N1CCC(Nc2cccc(C(=O)NCC(O)CN3CCc4ccccc4C3)c2)C1` (centres unmarked) [Compound 101], in that order: 10 to 50 µM and < 0.1 µM.
In the same order, the values of `O=C(NC[C@H](O)CN1CCc2ccccc2C1)c1ccnc(NC2CCNCC2)c1` [Compound 200] are 10 to 50 µM and 0.101 to 1 µM.
In the same order, the values of `Cn1nccc1Nc1cc(C(=O)NC[C@H](O)CN2CCc3ccccc3C2)ccn1` [Compound 325] are 0.101 to 1 µM and < 0.1 µM.
For `CN(C)C(=O)CN1CCN(Cc2cccc(C(=O)NCC(O)CN3CCc4ccccc4C3)c2)CC1` (centres unmarked) [Compound 174], the EC50 was 1 to 10 µM in the test on Z-138 cell line and < 0.1 µM in test [1].
For `CN1CCN(Cc2cccc(C(=O)NCC(O)CN3CCc4ccccc4C3)c2)CC1` (centres unmarked) [Compound 30, N-(3-(3,4-dihydroisoquinolin-2(1H)-yl)-2-hydroxypropyl)-3-((4-methylpiperazin-1-yl)methyl)benzamide], in that order: 1 to 10 µM and 0.101 to 1 µM.
For `O=C(NCC(O)CN1CCc2ccccc2C1)c1cccc(CO)c1` (centres unmarked) [Compound 151], in that order: > 20 µM and 0.101 to 1 µM.
For `O=C(NC[C@H](O)CN1CCc2ccccc2C1)c1ccc(OC2CCN(Cc3ccncc3)CC2)cc1` [Compound 331], in that order: < 0.1 µM and < 0.1 µM.
On to `O=C(NC[C@H](O)CN1CCc2ccccc2C1)c1ccnc(NC2CCCC2)c1` [Compound 334], for which the EC50 (in the test on Z-138 cell line; in test [1]) was < 0.1 µM throughout.
Turning to `O=C(NCC(O)CN1CCc2ccccc2C1)c1cccc(-n2cncn2)c1` (centres unmarked) [Compound 130], the EC50 in the test with Z-138 cell line fell in the range of 10 to 50 µM; in test [1] it was 0.101 to 1 µM.
In the case of `CN1CCC(CNc2cc(C(=O)NC[C@H](O)CN3CCc4ccccc4C3)ccn2)CC1` [Compound 292], the EC50 with Z-138 cell line was 0.101 to 1 µM; in test [1], < 0.1 µM.
